Data reported in PubChem BioAssay (NCI).
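Growth conditions: 96-well plates. Treatment: test compound, 48 hours, 5 concentrations. Analysis: linear interpolation between bracketing concentrations; unreached endpoints set to highest concentration. TGI marks complete inhibition of growth.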

Legend:
Test in all cases: growth of human tumour cells (NCI), 48 h
[1] = tested on: 786-0 renal
[2] = tested on: A498 renal
[3] = tested on: ACHN renal
[4] = tested on: DU-145 prostate
[5] = tested on: K-562 leukemia
[6] = tested on: M14 melanoma
[7] = tested on: OVCAR-4 ovarian
[8] = tested on: OVCAR-8 ovarian
[9] = tested on: PC-3 prostate
[10] = tested on: RPMI-8226 leukemia
[11] = tested on: SF-295 CNS
[12] = tested on: SNB-19 CNS
[13] = tested on: SW-620 colon
[14] = tested on: T-47D breast
[15] = tested on: TK-10 renal
[16] = tested on: U251 CNS
[17] = tested on: HS 578T breast
[18] = tested on: NCI-H460 lung
[19] = tested on: SF-268 CNS

| Structure (SMILES) | TGI [1] [µM] | TGI [2] [µM] | TGI [3] [µM] | TGI [4] [µM] | TGI [5] [µM] | TGI [6] [µM] | TGI [7] [µM] | TGI [8] [µM] | TGI [9] [µM] | TGI [10] [µM] | TGI [11] [µM] | TGI [12] [µM] | TGI [13] [µM] | TGI [14] [µM] | TGI [15] [µM] | TGI [16] [µM] | TGI [17] [µM] | TGI [18] [µM] | TGI [19] [µM] |
| --- | --- | --- | --- | --- | --- | --- | --- | --- | --- | --- | --- | --- | --- | --- | --- | --- | --- | --- | --- |
| CC1=CCS(=O)(=O)C1C(O)C1=C(C)CCCC1(C)C (configuration not stated) | > 100 | > 100 | > 100 | > 100 | > 100 | > 100 | > 100 | > 100 | > 100 | > 100 | > 100 | > 100 | > 100 | > 100 | > 100 | > 100 | – | – | – |
| C1=NCCOCCN=Cc2ccccc2OCc2cccc(n2)COc2ccccc21 | > 25 | > 25 | > 25 | 20.7 | > 25 | > 25 | > 25 | 16.9 | > 25 | 14 | 12 | > 25 | > 25 | – | 20.4 | 18.2 | 15 | > 25 | > 25 |
| CCOC(=O)C(O)(NC(=O)Nc1ccc(F)cc1)C(F)(F)F (configuration not stated) | > 100 | > 100 | > 100 | – | > 100 | > 100 | – | > 100 | > 100 | > 100 | – | > 100 | > 100 | > 100 | > 100 | > 100 | > 100 | – | > 100 |
| O=C(Nc1ccc([N+](=O)[O-])cc1)C(=O)C(C(=O)c1ccccc1F)C1OC(=O)c2ccccc21 (configuration not stated) | – | > 100 | > 100 | – | > 100 | > 100 | > 100 | > 100 | – | 68.9 | > 100 | > 100 | > 100 | – | > 100 | 39.9 | – | > 100 | > 100 |
| CC(=O)O[C@]12CCC[C@H]1C1(O)C(O)CCC[C@H]12 (some centres not stated) | > 100 | – | > 100 | – | > 100 | > 100 | > 100 | > 100 | – | > 100 | > 100 | > 100 | > 100 | – | > 100 | > 100 | – | > 100 | > 100 |
| CSCC[C@H]1C(=O)N=C(N)N1C(=O)OCc1ccccc1 | > 100 | > 100 | > 100 | > 100 | 71.9 | – | > 100 | > 100 | > 100 | > 100 | > 100 | > 100 | 33.9 | – | > 100 | > 100 | 49.9 | > 100 | > 100 |
| Cn1c(=O)nc2n(-c3ccc(Cl)cc3Cl)c3ccccc3nc-2c1=O | – | – | – | – | 22.6 | 4.58 | 15.4 | 14.1 | – | > 100 | 10.6 | 26.5 | – | – | 54.2 | 19 | – | – | 76 |
| CCOC(CCCN1CCC2(CC1)C(=O)N(C)CN2c1ccccc1)(OCC)c1ccc(F)cc1 | 27.7 | – | 28.6 | 46.5 | 33 | 23.9 | – | 33.6 | 29.6 | 29.9 | 25.3 | 22.6 | 28.7 | 29.8 | 22.2 | 26.3 | – | – | 29.7 |
| [O-]c1on[n+]2c1c(Nc1ccc(Cl)cc1)nc1ccccc12 | > 100 | > 100 | > 100 | – | > 100 | > 100 | > 100 | > 100 | – | > 100 | > 100 | > 100 | > 100 | – | > 100 | > 100 | – | > 100 | > 100 |
| O=Cc1cc2c(o1)C(=O)c1ccccc1C2=O | 2.9 | 9.44 | 7.96 | 0.427 | – | 0.367 | 2.26 | 2.72 | 11.6 | > 100 | 0.813 | 1.62 | 1.02 | 3.94 | 8.52 | 2.73 | – | 2.39 | 4.13 |
| OC(c1ccccc1)(c1ccccc1)c1cccnc1 | > 100 | > 100 | > 100 | – | > 100 | > 100 | > 100 | > 100 | – | > 100 | > 100 | > 100 | > 100 | – | > 100 | > 100 | – | > 100 | > 100 |
| CC(CCc1ccc2c(c1)c(=N)c1ccc(N)cc1n2O)CC(C)(C)C (configuration not stated) | 2.82 | 3.51 | 3.14 | – | 3.13 | 3.18 | – | – | – | 4.64 | 7.29 | – | 3.07 | – | 3.29 | 2.67 | – | – | 4.23 |
